According to patent publication US11618747B2, “LXR modulators with bicyclic core moiety” (OrsoBio, Inc., priority 2018, dated 2023):

Assays:
[1] = target: T1, LXRβ ligand-binding domain (Homo sapiens, UniProt P55055, DUP175-175); assay: TR-FRETβ activity assay (NCoA3 coactivator peptide recruitment); format: biochemical; conditions: TR-FRET, 1 μM 24(S)-25-epoxycholesterol prestimulation; read-out: FRETβ (EC50 range)
T1 construct: amino acids 156-461; NP009052; made in house; host or cells: E. coli
T1 sequence (P55055 with tags, fused parts or gaps DUP175-175 limits assumed): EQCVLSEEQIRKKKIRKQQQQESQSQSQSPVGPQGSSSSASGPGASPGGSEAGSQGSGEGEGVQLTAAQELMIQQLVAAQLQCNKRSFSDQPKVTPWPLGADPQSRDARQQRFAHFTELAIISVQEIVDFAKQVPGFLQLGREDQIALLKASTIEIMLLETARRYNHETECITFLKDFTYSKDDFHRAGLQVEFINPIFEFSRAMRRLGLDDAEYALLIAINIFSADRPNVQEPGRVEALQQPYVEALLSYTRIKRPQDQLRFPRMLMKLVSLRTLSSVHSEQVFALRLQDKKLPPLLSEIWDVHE
Method: (§1) The tested compounds were usually dissolved, tested and stored as 20 mM stock solutions in DMSO. Since sulfonyl acetic acid derivatives tend to decarboxylate under these conditions, these stock solutions were prepared, tested and stored as 20 mM DMSO stock solutions containing 100 mM trifluoroacetic Acid (5 equivalents). Sulfonyl acetic acid derivatives are shelf stable as solid at rt for long time as reported by Griesbrecht et al. (Synlett 2010:374) or Faucher et al. (J. Med. Chem. 2004; 47:18).
Recombinant GST-LXRPβ ligand-binding domain (LBD; amino acids 156-461; NP009052; SEQ ID NO:4) was expressed in E. coli and purified via gluthatione-sepharose affinity chromatography. N-terminally biotinylated NCoA3 coactivator peptide (SEQ ID NO:7) was chemically synthesized (Eurogentec). Assays were done in 384 well format (final assay volume of 25 μL/well) in a Tris/HCl buffer (pH 6.8) containing KCl, bovine serum albumin, Triton-X-100 and 1 μM 24(S)-25-epoxycholesterol as LXR-prestimulating agonist. Assay buffer was provided and test articles (potential LXR inverse agonists) were titrated to yield final assay concentrations of 50 μM, 16.7 μM, 5.6 μM, 1.9 μM, 0.6 μM, 0.2 μM, 0.07 μM, 0.02 μM, 0.007 μM, 0.002 μM with one vehicle control. Finally, a detection mix was added containing anti GST-Tb cryptate (CisBio; 610SAXLB) and Streptavidin-XL665 (CisBio; 610SAXLB) as fluorescent donor and acceptor, respectively, as well as the coactivator peptide and LXRβ-LBD protein (SEQ ID NO:4). The reaction was mixed thoroughly, equilibrated for 1 h at 4° C. and vicinity of LXRβ and coactivator peptide was detected by measurement of fluorescence in a VictorX4 multiplate reader (PerkinElmer Life Science) using 340 nm as excitation and 615 and 665 nm as emission wavelengths. Assays were performed in triplicates.
Final Assay Concentrations of Components:
240 mM KCl, 1 μg/μL BSA, 0.002% Triton-X-100, […] anti GST-Tb cryptate, 2.5 ng/μL Streptavidin-XL665, coactivator peptide (400 nM), LXRβ protein (530 μg/mL, i.e. 76 nM).

full length (FL) LXRβ = target: T2, full length (FL) LXRβ (Homo sapiens, UniProt P55055, DUP175-175); assay: LXR Gal4 reporter transient transfection assay (FL-M2H Gal4β); format: cell-based; conditions: HEK293 cells, full length LXRβ; read-out: FL-M2H Gal4β (EC50 range)
T2 construct: the full length (FL) proteins of LXRα (amino acids 1-447); NP005684; NP009052; expressed in transfected cells; host or cells: HEK293
T2 sequence (P55055 with tags, fused parts or gaps DUP175-175): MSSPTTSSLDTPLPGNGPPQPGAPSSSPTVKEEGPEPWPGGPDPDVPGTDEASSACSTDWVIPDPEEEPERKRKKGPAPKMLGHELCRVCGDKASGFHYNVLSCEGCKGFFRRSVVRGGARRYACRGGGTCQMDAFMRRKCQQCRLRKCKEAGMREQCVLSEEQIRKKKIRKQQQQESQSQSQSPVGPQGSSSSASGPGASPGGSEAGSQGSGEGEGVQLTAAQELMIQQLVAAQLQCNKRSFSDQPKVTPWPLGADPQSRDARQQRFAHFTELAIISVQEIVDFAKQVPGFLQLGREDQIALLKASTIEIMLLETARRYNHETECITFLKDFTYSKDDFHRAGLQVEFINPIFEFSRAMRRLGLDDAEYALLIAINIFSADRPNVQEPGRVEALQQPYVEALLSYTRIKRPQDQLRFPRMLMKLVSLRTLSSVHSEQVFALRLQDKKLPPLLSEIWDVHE
Method: as §1
LXR Gal4 Reporter Transient Transfection Assays
LXRα and LXRβ activity status was determined via detection of interaction with coactivator and corepressor proteins in mammalian two-hybrid experiments (M2H). For this, via transient transfection the full length (FL) proteins of LXRα (amino acids 1-447; NP005684; SEQ ID NO:1) or LXRβ-(amino acids 1-461; NP009052; SEQ ID NO:2) or the ligand-binding domains (LBD) of LXRα (amino acids 155-447 SEQ ID NO:3) or LXRβ (amino acids 156-461; SEQ ID NO:4) were expressed from pCMV-AD (Stratagene) as fusions to the transcriptional activation domain of NFkB. As cofactors, domains of either the steroid receptor coactivator 1 (SRC1; amino acids 552-887; SEQ ID NO:5) or of the corepressor NCoR (amino acids 1906-2312; NP006302; SEQ ID NO:6) were expressed as fusions to the DNA binding domain of the yeast transcription factor GAL4 (from pCMV-BD; Stratagene). Interaction was monitored via activation of a coexpressed Firefly Luciferase Reporter gene under control of a promoter containing repetitive GAL4 response elements (vector pFRLuc; Stratagene). Transfection efficiency was controlled via cotransfection of constitutively active pRL-CMV Renila reniformis luciferase reporter (Promega). HEK293 cells were grown in minimum essential medium (MEM) with 2 mM L-glutamine and Earle's balanced salt solution supplemented with 8.3% fetal bovine serum, 0.1 mM non-essential amino acids, 1 mM sodium pyruvate, at 37° C. in 5% CO2. 3.5×10^4 cells/well were plated in 96-well cell culture plates in growth medium supplemented with 8.3% fetal bovine serum for 16-20 h to ˜90% confluency. For transfection, medium was taken off and LXR and cofactor expressing plasmids as well as the reporter plasmids are added in 30 μL OPTIMEM/well including polyethylene-imine (PEI) as vehicle. Typical amounts of plasmids transfected/well: pCMV-AD-LXR (5 ng), pCMV-BD-cofactor (5 ng), pFR-Luc (100 ng), pRL-CMV (0.5 ng). Compound stocks were prepared in DMSO, prediluted in MEM to a total volume of 120 μL, and added 4 h after addition of the transfection mixture (final vehicle concentration not exceeding 0.2%). Cells were incubated for additional 16 h, lysed for 10 min in 1× Passive Lysis Buffer (Promega) and Firefly and Renilla luciferase activities were measured sequentially in the same cell extract using buffers containing D-luciferine and coelenterazine, respectively. Measurements of luminescence were done in a BMG-luminometer.

Compound	EC50 [1] [nM]	EC50 (full length (FL) LXRβ) [nM]
Cc1cccc(C#N)c1-c1c(-c2cccc(-c3ccc(C(=O)O)cc3Cl)c2)n(S(=O)(=O)c2ccc(C(F)F)cc2)c2ccc(F)cc12 [11/36, 2-chloro-3′-(3-(2-cyano-6-methylphenyl)-1-((4-(difluoro-methyl)phenyl)sulfonyl)-5-fluoro-1H-indol-2-yl)-[1,1′-biphenyl]-4-carboxylic Acid]	< 100	< 100
N#Cc1sccc1-c1c(-c2ccccc2)n(S(=O)(=O)c2ccc(CC(=O)O)s2)c2ccccc12 [27/3]	> 10000	–
Cc1ccc(S(=O)(=O)n2c(-c3cccc(-c4ccc(-c5nnn[nH]5)cc4Cl)c3)c(-c3ccsc3C#N)c3cc(F)ccc32)cc1 [Example 37, 3-(2-(2′-Chloro-4′-(1H-tetrazol-5-yl)-[1,1′-biphenyl]-3-yl)-5-fluoro-1-tosyl-1H-indol-3-yl)thiophene-2-carbonitrile]	100 to 1000	< 100
Cc1ccc(S(=O)(=O)n2c(-c3cccc(-c4ccc(C(=O)O)cc4Cl)c3)c(-c3ccccc3C#N)c3cc(F)ccc32)cc1 [Example 11, 2-Chloro-3′-(3-(2-cyanophenyl)-5-fluoro-1-tosyl-1H-indol-2-yl)-[1,1′-biphenyl]-4-carboxylic acid]	< 100	< 100
Cc1ccc(S(=O)(=O)n2c(-c3cccc(-c4cncc(S(=O)(=O)CC(=O)O)c4)c3)c(-c3ccsc3C#N)c3ccccc32)cc1 [Example 5, 2-((5-(3-(3-(2-Cyanothiophen-3-yl)-1-tosyl-1H-indol-2-yl)phenyl)pyridin-3-yl)sulfonyl)acetic Acid]	100 to 1000	1000 to 10000
Cc1ccc(S(=O)(=O)n2c(-c3cccc(S(=O)(=O)CC(=O)O)c3)c(-c3ccsc3C#N)c3ccccc32)cc1 [3/15]	1000 to 10000	–
Cn1cnc(S(=O)(=O)n2c(-c3cccc(C4CC4C(=O)O)c3)c(-c3ccsc3C#N)c3ccccc32)c1 (stereo not drawn) [30/10]	> 10000	–
N#Cc1cccc(C#N)c1-c1c(-c2cccc(-c3ccc(C(=O)O)cc3)c2)n(S(=O)(=O)c2ccc(C(F)F)cc2)c2ccc(F)cc12 [11/50]	< 100	< 100
N#Cc1sccc1-c1c(-c2cccs2)n(S(=O)(=O)c2ccc(Cl)cc2)c2cc(C(=O)O)ccc12 [Example 19, 1-((4-Chlorophenyl)sulfonyl)-3-(2-cyanothiophen-3-yl)-2-(thiophen-2-yl)-1H-indole-6-carboxylic Acid]	> 10000	–
Cc1ccc(S(=O)(=O)n2c(-c3cccc(N4CC(C(=O)O)C4)c3)c(-c3ccsc3/C=N/O)c3cc(F)ccc32)cc1 [3/7]	1000 to 10000	< 100
Cc1ccc(S(=O)(=O)n2c(-c3cccc(-c4cnc(C(=O)O)cc4C)c3)c(-c3ccsc3C#N)c3cc(F)ccc32)cc1 [Example 36, 5-(3-(3-(2-Cyanothiophen-3-yl)-5-fluoro-1-tosyl-1/indol-2-yl)phenyl)-4-methylpicolinic Acid]	1000 to 10000	100 to 1000
N#Cc1sccc1-c1c(-c2cccs2)n(S(=O)(=O)c2ccc(Cl)cc2)c2cc(OCC(=O)O)ccc12 [15/3]	> 10000	–
N#Cc1sccc1-c1c(-c2ccccc2)n(S(=O)(=O)c2ccc(-c3cccc(C(=O)O)c3)cc2)c2ccccc12 [27/2]	1000 to 10000	–
Cc1ccc(S(=O)(=O)n2c(-c3cccc(-c4ccc(C(=O)NCCS(=O)(=O)O)cc4Cl)c3)c(-c3ccsc3C#N)c3cc(F)ccc32)cc1 [Example 10, 2-(2-Chloro-3′-(3-(2-cyanothiophen-3-yl)-5-fluoro-1-tosyl-1H-indol-2-yl)-[1,1′-biphenyl]-4-carboxamido)ethane-1-sulfonic Acid]	100 to 1000	100 to 1000
Cc1ccc(S(=O)(=O)n2c(-c3cccc(-c4ccc(CN(C)C)cc4Cl)c3)c(-c3ccsc3C#N)c3cc(F)ccc32)cc1 [Example 2, 3-(2-(2′-Chloro-4′-((dimethylamino)methyl)-[1,1′-biphenyl]-3-yl)-5-fluoro-1-tosyl-1H-indol-3-yl)thiophene-2-carbonitrile]	100 to 1000	< 100
Cc1ccc(S(=O)(=O)n2c(-c3cccc(-c4ccc(C(N)=O)cc4)c3)c(-c3ccsc3C#N)c3cc(F)ccc32)cc1 [6/2]	100 to 1000	< 100
Cc1ccc(S(=O)(=O)n2c(-c3cccc(-c4ccc(C(=O)NO)cc4)c3)c(-c3ccsc3C#N)c3cc(F)ccc32)cc1 [Example 6, 3′-(3-(2-Cyanothiophen-3-yl)-5-fluoro-1-tosyl-1H-indol-2-yl)-N-hydroxy-[1,1′-biphenyl]-4-carboxamide]	100 to 1000	< 100
N#Cc1cccc(C#N)c1-c1c(-c2cccc(-c3ccc(C(=O)O)cc3Cl)c2)n(S(=O)(=O)c2ccc(C(F)F)cc2)c2cc(F)c(O)cc12 [Example 44, 2-Chloro-3′-(3-(2,6-dicyanophenyl)-1-((4-(difluoromethyl)phenyl)sulfonyl)-6-fluoro-5-hydroxy-1H-indol-2-yl)-[1,1′-biphenyl]-4-carboxylic Acid]	100 to 1000	< 100
Cc1ccc(S(=O)(=O)n2c(-c3cccc(N4CC(C(=O)O)C4)c3)c(-c3ccsc3C(=O)N(C)C)c3cc(F)ccc32)cc1 [3/28]	> 10000	1000 to 10000
N#Cc1sccc1-c1c(-c2ccccc2)n(S(=O)(=O)c2ccc(CC(=O)O)cc2)c2ccccc12 [27/1]	1000 to 10000	–
